Measurements taken from patent US20250281609A1, “COMPOSITION FOR TREATING OR PREVENTING CANCER” (ORGANOIDSCIENCES LTD., priority 2021, published 2025).

What was measured:
[1] = test system: colorectal cancer organoids; assay: Colorectal cancer organoid viability (growth rate and death rate); format: cell-based, human; settings: for increase in efficacy (cancer organoid death) of the combination of the HVEM inhibitor with the HSP inhibitor compared to HVEM inhibitor alone: 72 hours after treatment, FIG. 6
Experimental: To evaluate whether the combination of HVEM inhibitor and HSP inhibitor exerts a synergistic effect as a cancer preventive or therapeutic agent, we conducted the following experiment. Specifically, colorectal cancer organoids were treated with either an HVEM inhibitor alone, an HSP inhibitor alone, or a combination of both. The anticancer efficacy of the combination treatment was assessed by measuring cancer organoid viability.
For HVEM inhibitor, anti-HVEM antibodies (CW10, Santa Cruz, #sc-21718; R&D Systems, #MAB356-SP) were used at 10 nM. For inhibitor of HVEM ligands, anti-BTLA antibodies (Mybiosource, #MBS633646; Adipogen, #AG-20B-0049) were used at 10 nM. For HSP inhibitors, Luminespib (AUY922, Selleck, #s1069; HSP90-targeting), Ganetespib (STA-9090, Selleck, #s1159; HSP90-targeting), Tanespimycin (17-AAG, Selleck, #s1141; HSP90-targeting), BIIB021 (Selleck, #s1175; HSP90-targeting), Onalespib (AT13387, Selleck, #s1163; HSP90-targeting), HSP990 (#s7097; Selleck, HSP90-targeting), KNK437 (#s7750; Selleck, HSP40-targeting), and VER-155008 (Selleck, #s7751; HSP70-targeting) were used.
The viability of cancer organoids was assessed through growth rate and death rate of cancer organoids as follows.

[2] = test system: colorectal cancer organoids xenograft tumors; assay: Mouse tumor xenograft model using colorectal cancer organoids, humanized with PBMCs; format: in vivo; settings: harvested tumor tissues, FIG. 10
Experimental: Specifically, monotherapy with an HVEM inhibitor, monotherapy with a BTLA inhibitor, monotherapy with an HSP inhibitor, combination therapy with an HVEM inhibitor and an HSP inhibitor, combination therapy with a BTLA inhibitor and an HSP inhibitor, or combination therapy with an HVEM inhibitor, a BTLA inhibitor, and an HSP inhibitor was administered to a mouse tumor xenograft model using colorectal cancer organoids. In addition, since the effect of inhibitors of HVEM and its ligand requires the presence of immune cells, PBMCs were introduced into the mice bearing the xenograft tumors to generate humanized mice. The inhibitors were administered a total of four times on days 15, 18, 21, and 24 after tumor transplantation.
As an HVEM (Herpesvirus entry mediator) inhibitor, an anti-HVEM antibody (CW10, Santa Cruz, #sc-21718) was used at a dose of 1 mg/kg; as an inhibitor of the HVEM ligand, an anti-BTLA antibody (Mybiosource, #MBS633646) was used at a dose of 1 mg/kg; and as an HSP (heat shock protein) inhibitor, Luminespib (AUY922, Selleck, #s1069; targeting HSP90) was used at a dose of 0.5 mg/kg.
From day 7 after tumor implantation, tumor size was measured three times per week. After completion of the experiment, the shape of the harvested tumors was analyzed, and tumor weight was measured. […]

[3] = colorectal cancer organoids, increasing concentrations

Row | Structure (SMILES) | increase in efficacy (cancer organoid death) of the combination of the HVEM inhibitor with the HSP inhibitor compared to HVEM inhibitor alone ([1]; colorectal cancer organoids) | increase in cancer organoid death rate, high concentration vs low concentration ([1]; 100 nM or higher compared to 1 to 5 nM) | cancer organoid death rate [1, 3] | growth rate of cancer organoids over time [1, 3] | hCD8+ T cells infiltrated into the tumor tissue (IHC) [2]
1 | C=CCNC1=C2C[C@@H](C)C[C@H](OC)[C@H](O)[C@@H](C)/C=C(\C)[C@H](OC(N)=O)[C@@H](OC)/C=C\C=C(/C)C(=O)NC(=CC1=O)C2=O [17-AAG, Tanespimycin] | approximately 2.9 fold | – | – | – | –
2 | CCNC(=O)c1noc(-c2cc(C(C)C)c(O)cc2O)c1-c1ccc(CN2CCOCC2)cc1 [AUY922, Luminespib] | ≥ 3.4 fold | > 3.6 fold | increased cancer organoids death rate | reduced growth over time | barely detected
3 | CC(C)c1cc(-c2n[nH]c(=O)n2-c2ccc3c(ccn3C)c2)c(O)cc1O [STA-9090, Ganetespib] | approximately 2.9 fold | – | – | – | –
